Values quoted from earlier work in US7642353B2, “Process of making crystalline aripiprazole” (Synthon BV, priority 2004, dated 2010).

SMILES | water uptake (in 24 hours) | hygroscopicity (solid form, as taught by WO 03/26659)
O=C1CCc2ccc(OCCCCN3CCN(c4cccc(Cl)c4Cl)CC3)cc2N1 [Anhydrous Form B, 7-[4-[4-(2,3-dichlorophenyl)-1-piperazinyl]butoxy]-3,4-dihydrocarbostyril] | less than 0.4% | –
O=C1CCc2ccc(OCCCCN3CCN(c4cccc(Cl)c4Cl)CC3)cc2N1 [Type I aripiprazole, 7-[4-[4-(2,3-dichlorophenyl)-1-piperazinyl]butoxy]-3,4-dihydrocarbostyril] | – | significantly hygroscopic
